Peptide text beside a SMILES is read from it. * marks the point of attachment. Palmitoyl = CCCCCCCCCCCCCCCC(=O)*
What was measured:
H-Val-Trp = system: T1, H-Val-Trp
T1 sequence: VW

[1] = target: Converting enzyme (EC 3.4.15.1) (Homo sapiens, UniProt P12821); assay: ACE-inhibition test (FAPGG decomposition, ΔOD at 340 nm; derived from Sigma Diagnostics method No. 305-UV); assay type: biochemical; conditions: for ΔOD: 340 nm, mean of five tests
Text: The test is derived from Sigma Diagnostics method No. 305-UV.
Converting enzyme (EC 3.4.15.1) decomposes synthetic tripeptide FAPGG into FAP+glycylglycine. The change in optical density (ΔOD) at 340 nm is directly proportional to disappearance of the FAPGG, which allows a quantification of the converting enzyme activity.
The inhibiting effect of a compound is investigated according to the same principle, but in the presence of various concentrations of the test compounds.

[2] = system: Normal human keratinocytes and fibroblasts; assay: Cell viability by conventional MTT test; assay type: cell-based; conditions: maximum concentration used (45 ppm)
Protocol: Normal human keratinocytes and fibroblasts are cultured in a conventional medium in the presence or absence of various concentrations (10-45 ppm) of peptide Pal-GQPR (SEQ ID NO:2). After 24 hours the cells are rinsed in the same medium without Pal-GQPR (SEQ ID NO:2) and, after being subjected to irradiation of 35 mJ/cm^2, the same cells are returned to the culture for 48 hours, without Pal-GQPR (SEQ ID NO:2) or in its presence in the same concentrations as during the initial culture period. Cellular IL-6 is then determined using a standard ELISA test kit.
In parallel with this, to make certain that the concentration reductions observed were not due to cell mortality induced by the peptide itself, viability of the cells was verified by the conventional MTT test.

[3] = target: angiotensin converting enzyme (EC 3.4.15.1); assay: cell-based or functional assay

Sequence of Converting enzyme (EC 3.4.15.1) (P12821 30-1306): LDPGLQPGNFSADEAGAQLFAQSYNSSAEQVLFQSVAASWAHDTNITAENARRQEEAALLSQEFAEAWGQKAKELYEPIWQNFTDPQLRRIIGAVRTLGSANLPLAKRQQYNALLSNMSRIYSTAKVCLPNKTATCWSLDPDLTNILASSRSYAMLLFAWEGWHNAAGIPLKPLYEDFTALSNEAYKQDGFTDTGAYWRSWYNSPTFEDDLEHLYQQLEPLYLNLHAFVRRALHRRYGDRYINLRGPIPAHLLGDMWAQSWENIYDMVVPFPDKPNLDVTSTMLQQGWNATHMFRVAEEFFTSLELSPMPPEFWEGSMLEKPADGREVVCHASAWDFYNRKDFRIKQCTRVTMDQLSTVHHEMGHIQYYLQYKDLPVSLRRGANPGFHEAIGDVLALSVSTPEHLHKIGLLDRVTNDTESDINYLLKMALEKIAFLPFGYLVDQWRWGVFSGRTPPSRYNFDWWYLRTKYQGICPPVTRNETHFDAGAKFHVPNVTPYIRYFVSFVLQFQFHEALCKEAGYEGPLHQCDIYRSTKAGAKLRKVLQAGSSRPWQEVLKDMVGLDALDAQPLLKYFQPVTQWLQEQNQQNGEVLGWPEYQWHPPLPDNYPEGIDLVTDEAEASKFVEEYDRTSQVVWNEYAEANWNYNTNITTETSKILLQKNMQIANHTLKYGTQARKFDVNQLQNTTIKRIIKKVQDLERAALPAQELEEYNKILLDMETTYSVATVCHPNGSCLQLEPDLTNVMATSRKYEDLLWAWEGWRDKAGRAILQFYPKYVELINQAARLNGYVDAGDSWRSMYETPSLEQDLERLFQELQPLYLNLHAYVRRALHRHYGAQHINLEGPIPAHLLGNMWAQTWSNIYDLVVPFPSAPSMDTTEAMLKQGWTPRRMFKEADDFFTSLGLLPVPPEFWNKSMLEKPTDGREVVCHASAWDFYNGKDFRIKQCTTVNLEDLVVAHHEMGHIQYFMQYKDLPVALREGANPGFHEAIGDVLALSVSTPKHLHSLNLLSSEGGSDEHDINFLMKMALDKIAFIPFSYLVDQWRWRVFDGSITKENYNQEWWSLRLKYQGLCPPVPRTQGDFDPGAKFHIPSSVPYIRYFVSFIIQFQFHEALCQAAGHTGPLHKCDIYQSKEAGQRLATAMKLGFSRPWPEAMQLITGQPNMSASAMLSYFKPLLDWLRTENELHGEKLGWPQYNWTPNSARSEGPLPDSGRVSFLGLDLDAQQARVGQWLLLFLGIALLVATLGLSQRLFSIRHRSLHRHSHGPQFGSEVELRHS

Compound: angiotensin converting enzyme (EC 3.4.15.1)
- ΔOD (340 nm, FAPGG hydrolysis by converting enzyme), peptide at 10 ppm (H-Val-Trp): 0.08 ΔOD
- ΔOD (340 nm, FAPGG hydrolysis by converting enzyme), peptide at 50 ppm (H-Val-Trp): 0.018 ΔOD

Compound: H-Val-Trp
- Inhibition ([1]; peptide 10 ppm): 27.3%
- ΔOD ([1]; peptide 10 ppm): 0.080
- Inhibition ([1]; peptide 50 ppm): 83.4%
- ΔOD ([1]; peptide 50 ppm): 0.018

Compound: CCCCCCCCCCCCCCCC(=O)NCC(=O)N[C@@H](CCC(N)=O)C(=O)N1CCC[C@H]1C(=O)N[C@@H](CCCNC(=N)N)C(=O)O [N-Palmitoyl-Gly-Gln-Pro-Arg] (Palmitoyl-GQPR-OH)
- Cytotoxic effect (cell viability, MTT) [2]: does not exert any cytotoxic effect

Compound: H-Val-Trp (peptide)
- Inhibition (converting enzyme activity, FAPGG hydrolysis, ΔOD at 340 nm), peptide at 10 ppm [3]: 27.3%
- Inhibition (converting enzyme activity, FAPGG hydrolysis, ΔOD at 340 nm), peptide at 50 ppm [3]: 83.4%
